Data: US11833156B2, “Heterocyclic compounds as pad inhibitors” (JUBILANT EPIPAD LLC, priority 2017, dated 2023)

These molecules were tested against PAD4 enzyme (Homo sapiens (Human), UniProt Q9UM07) (assay: Ammonia Release Biochemical Assay (citrullination detected via ammonia release)). Settings: PAD4 120 nM, substrate BAEE, 60-min preincubation, read-out: NH3 release.
Procedure: Ammonia Release Biochemical Assay
Citrullination assay was detected via ammonia release. PAD4 enzyme was diluted to 120 nM in assay buffer (100 mM HEPES, 50 mM NaCl, 2 mM DDT, 0.6 mg/mL BSA, pH 7.4) added to wells containing various concentration of compound or DMSO vehicle (1% final) in black 384 well plate. Following a 60-min preincubation at room temperature, the reaction was initiated by the addition of substrate (1.5 mM BAEE in 200 mM HEPES, 50 mM NaCl, 350 uM CaCl2, 2 mM, pH 7.4). The reaction was stopped after 60 min by addition of stop/detection buffer containing 50 mM EDTA, 2.6 mM of o-phthaladehyde and 2.6 mM DTT. Assay was incubated at room temperature for 90 min before measuring fluorescence's (λex 405/λem 460 nm) on Tecan reader. IC50 was calculated using XL-fit software model 205. (Ref: Nat Chem Biol. 2015 March; 11(3):189-91).

Sequence of PAD4 enzyme (Q9UM07 whole entry): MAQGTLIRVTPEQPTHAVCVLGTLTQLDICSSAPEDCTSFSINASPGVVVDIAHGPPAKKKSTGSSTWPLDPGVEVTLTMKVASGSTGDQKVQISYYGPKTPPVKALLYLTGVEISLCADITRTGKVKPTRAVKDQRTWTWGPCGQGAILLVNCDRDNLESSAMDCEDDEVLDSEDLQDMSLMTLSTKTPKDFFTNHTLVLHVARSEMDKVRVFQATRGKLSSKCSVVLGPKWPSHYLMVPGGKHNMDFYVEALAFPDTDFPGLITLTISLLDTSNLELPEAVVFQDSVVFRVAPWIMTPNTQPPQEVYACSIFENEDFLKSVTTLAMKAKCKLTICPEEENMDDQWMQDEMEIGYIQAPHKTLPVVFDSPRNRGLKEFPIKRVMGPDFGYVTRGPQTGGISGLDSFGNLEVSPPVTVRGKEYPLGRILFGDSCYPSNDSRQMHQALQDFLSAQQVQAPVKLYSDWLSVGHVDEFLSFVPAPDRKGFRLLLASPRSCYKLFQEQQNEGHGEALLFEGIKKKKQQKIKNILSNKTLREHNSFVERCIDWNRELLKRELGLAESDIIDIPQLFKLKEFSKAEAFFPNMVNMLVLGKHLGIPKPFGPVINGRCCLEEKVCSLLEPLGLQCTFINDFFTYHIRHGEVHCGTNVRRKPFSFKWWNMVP

SMILES | IC50 [nM]
COc1ccc2cc(-c3nc4cc(C(=O)N5CCC[C@@H](N)C5)cc5c4n3CCO5)n(Cc3ccc(F)cc3)c2c1 [Example 51, (R)-(3-aminopiperidin-1-yl)(2-(1-(4-fluorobenzyl)-6-methoxy-1H-indol-2-yl)-3,4-dihydro-5-oxa-1,2a-diazaacenaphthylen-7-yl)methanone] | ≤ 1000
N[C@@H]1CCCN(C(=O)c2cc3c4c(c2)nc(-c2cc5ccccc5n2CC2CCNCC2)n4CCO3)C1 [Example 43, (R)-(3-aminopiperidin-1-yl)(2-(1-(piperidin-4-ylmethyl)-1H-indol-2-yl)-3,4-dihydro-5-oxa-1,2a-diazaacenaphthylen-7-yl)methanone] | ≥ 10000
N[C@@H]1CCCN(C(=O)c2cc3c4c(c2)nc(-c2cc5ccccc5n2Cc2ccccn2)n4CCN3)C1 [Example 69, (R)-(3-aminopiperidin-1-yl)(2-(1-(pyridin-2-ylmethyl)-1H-indol-2-yl)-5,6-dihydro-4H-imidazo[1,5,4-de]quinoxalin-8-yl)methanone] | ≤ 1000
N[C@@H]1CCCN(C(=O)c2cc3c4c(c2)nc(-c2cc5cc(/C=C/c6ccccc6)ccc5n2CC2CC2)n4CCO3)C1 [Example 58, (R,E)-(3-aminopiperidin-1-yl)(2-(1-(cyclopropylmethyl)-5-styryl-1H-indol-2-yl)-3,4-dihydro-5-oxa-1,2a-diazaacenaphthylen-7-yl)methanone] | 1000 to 10000
COc1ccc(Cn2c(-c3nc4cc(C(=O)N5CCC[C@@H](N)C5)cc5c4n3CCO5)cc3ccc(F)cc32)cc1 [Example 50, (R)-(3-aminopiperidin-1-yl)(2-(6-fluoro-1-(4-methoxybenzyl)-1H-indol-2-yl)-3,4-dihydro-5-oxa-1,2a-diazaacenaphthylen-7-yl)methanone] | ≤ 1000
N[C@@H]1CCCN(C(=O)c2cc3c4c(c2)nc(-c2cc5ccccc5n2Cc2ccncc2)n4CCN3)C1 [Example 71, (R)-(3-aminopiperidin-1-yl)(2-(1-(pyridin-4-ylmethyl)-1H-indol-2-yl)-5,6-dihydro-4H-imidazo[1,5,4-de]quinoxalin-8-yl)methanone] | ≤ 1000
N[C@@H]1CCCN(C(=O)c2cc3c4c(c2)nc(-c2cc5ccc(CO)cc5n2CC2CC2)n4CCO3)C1 [Example 61, (R)-(3-aminopiperidin-1-yl)(2-(1-(cyclopropylmethyl)-6-(hydroxymethyl)-1H-indol-2-yl)-3,4-dihydro-5-oxa-1,2a-diazaacenaphthylen-7-yl)methanone] | ≤ 1000
N[C@@H]1CCCN(C(=O)c2cc3c4c(c2)nc(-c2cc5cc(F)c(F)cc5n2CC2CC2)n4CCO3)C1 [Example 32, (R)-(3-aminopiperidin-1-yl)(2-(1-(cyclopropylmethyl)-5,6-difluoro-1H-indol-2-yl)-3,4-dihydro-5-oxa-1,2a-diazaacenaphthylen-7-yl)methanone] | ≤ 1000
N[C@@H]1CCCN(C(=O)c2cc3c4c(c2)nc(-c2cc5cc(-c6cccnc6)ccc5n2CC2CC2)n4CCN3)C1 [Example 68, (R)-(3-aminopiperidin-1-yl)(2-(1-(cyclopropylmethyl)-5-(pyridin-3-yl)-1H-indol-2-yl)-5,6-dihydro-4H-imidazo [1,5,4-de]quinoxalin-8-yl)methanone] | 1000 to 10000
N[C@@H]1CCN(C(=O)c2cc3c4c(c2)nc(-c2cc5ccccc5n2CC2CC2)n4CCCO3)C1 [Example 7, (R)-(3-aminopyrrolidin-1-yl)(1-(1-(cyclopropylmethyl)-1H-indol-2-yl)-8,9-dihydro-7H-6-oxa-2,9a-diazabenzo[cd]azulen-4-yl)methanone] | 1000 to 10000
N[C@@H]1CCCN(C(=O)c2cc3c4c(c2)nc(-c2cc5ccccc5n2CC2CC2)n4CCN3C2CC2)C1 [Example 78, (R)-(3-aminopiperidin-1-yl)(6-cyclopropyl-2-(1-(cyclopropylmethyl)-1H-indol-2-yl)-5,6-dihydro-4H-imidazo[1,5,4-de]quinoxalin-8-yl)methanone] | ≤ 1000
COc1ccc2cc(-c3nc4cc(C(=O)N5CCC[C@@H](N)C5)cc5c4n3CCO5)n(Cc3ncccc3F)c2c1 [Example 33, (R)-(3-aminopiperidin-1-yl)(2-(1-((3-fluoropyridin-2-yl)methyl)-6-methoxy-1H-indol-2-yl)-3,4-dihydro-5-oxa-1,2a-diazaacenaphthylen-7-yl)methanone] | ≤ 1000
N[C@@H]1CCCN(C(=O)c2cc3c4c(c2)nc(-c2cc5ccc(F)cc5n2Cc2ncccc2F)n4CCO3)C1 [Example 35, (R)-(3-aminopiperidin-1-yl)(2-(6-fluoro-1-((3-fluoropyridin-2-yl)methyl)-1H-indol-2-yl)-3,4-dihydro-5-oxa-1,2a-diazaacenaphthylen-7-yl)methanone] | ≤ 1000
CC1(C)COc2cc(C(=O)N3CCC[C@@H](N)C3)cc3nc(-c4cc5ccccc5n4CC4CC4)n1c23 [Example 62, (R)-(3-aminopiperidin-1-yl)(2-(1-(cyclopropylmethyl)-1H-indol-2-yl)-3,3-dimethyl-3,4-dihydro-5-oxa-1,2a-diazaacenaphthylen-7-yl)methanone] | ≥ 10000
N[C@@H]1CCCN(C(=O)c2cc3c4c(c2)nc(-c2cc5cc(Br)ccc5n2CC2CC2)n4CCN3)C1 [Example 67, (R)-(3-aminopiperidin-1-yl)(2-(5-bromo-1-(cyclopropylmethyl)-1H-indol-2-yl)-5,6-dihydro-4H-imidazo [1,5,4-de]quinoxalin-8-yl)methanone] | ≤ 1000

Further lines, results first:

IC50 [nM] | SMILES
≥ 10000 | CN1CCC(Cn2c(-c3nc4cc(C(=O)N5CCC[C@@H](N)C5)cc5c4n3CCO5)cc3ccccc32)CC1 [Example 45, (R)-(3-aminopiperidin-1-yl)(2-(1-((l-methylpiperidin-4-yl)methyl)-1H-indol-2-yl)-3,4-dihydro-5-oxa-1,2a-diazaacenaphthylen-7-yl)methanone]
≤ 1000 | CC(C)Cn1c(-c2nc3cc(C(=O)N4CCC[C@@H](N)C4)cc4c3n2CCO4)cc2cccc(Cl)c21 [Example 55, (R)-(3-aminopiperidin-1-yl)(2-(7-chloro-1-isobutyl-1H-indol-2-yl)-3,4-dihydro-5-oxa-1,2a-diazaacenaphthylen-7-yl)methanone]
≤ 1000 | N[C@@H]1CCCN(C(=O)c2cc3c4c(c2)nc(-c2cc5ccccc5n2Cc2ncccn2)n4CCO3)C1 [Example 27, (R)-(3-aminopiperidin-1-yl)(2-(1-(pyrimidin-2-ylmethyl)-1H-indol-2-yl)-3,4-dihydro-5-oxa-1,2a-diazaacenaphthylen-7-yl)methanone]
≤ 1000 | COc1ccc2cc(-c3nc4cc(C(=O)N5CCC[C@@H](N)C5)cc5c4n3CCO5)n(CC3CC3)c2c1 [Example 23, (R)-(3-aminopiperidin-1-yl)(2-(1-(cyclopropylmethyl)-6-methoxy-1H-indol-2-yl)-3,4-dihydro-5-oxa-1,2a-diazaacenaphthylen-7-yl)methanone]
≤ 1000 | N[C@@H]1CCCN(C(=O)c2cc3c4c(c2)nc(-c2cc5cccc(Cl)c5n2CC2CC2)n4CCO3)C1 [Example 57, (R)-(3-aminopiperidin-1-yl)(2-(7-chloro-1-(cyclopropylmethyl)-1H-indol-2-yl)-3,4-dihydro-5-oxa-1,2a-diazaacenaphthylen-7-yl)methanone]
1000 to 10000 | N[C@@H]1CCN(C(=O)c2cc3c4c(c2)nc(-c2cc5ccccc5n2CC2CC2)n4CCO3)C1 [Example 2, (R)-(3-aminopyrrolidin-1-yl)(2-(1-(cyclopropylmethyl)-1H-indol-2-yl)-3,4-dihydro-5-oxa-1,2a-diazaacenaphthylen-7-yl)methanone]
1000 to 10000 | N[C@@H]1CCCN(C(=O)c2cc3c4c(c2)nc(-c2cc5cccc(Cl)c5n2Cc2cncnc2)n4CCO3)C1 [Example 88, (R)-(3-aminopiperidin-1-yl)(2-(7-chloro-1-(pyrimidin-5-ylmethyl)-1H-indol-2-yl)-3,4-dihydro-5-oxa-1,2a-diazaacenaphthylen-7-yl)methanone]
1000 to 10000 | N[C@@H]1CCCN(C(=O)c2cc3c4c(c2)nc(-c2cc5ccccc5n2CC2COC2)n4CCO3)C1 [Example 44, (R)-(3-aminopiperidin-1-yl)(2-(1-(oxetan-3-ylmethyl)-1H-indol-2-yl)-3,4-dihydro-5-oxa-1,2a-diazaacenaphthylen-7-yl)methanone]
≤ 1000 | N[C@@H]1CCCN(C(=O)c2cc3c4c(c2)nc(-c2cc5ccccc5n2CC(F)F)n4CCO3)C1 [Example 47, (R)-(3-aminopiperidin-1-yl)(2-(1-(2,2-difluoroethyl)-1H-indol-2-yl)-3,4-dihydro-5-oxa-1,2a-diazaacenaphthylen-7-yl)methanone]
≤ 1000 | N[C@@H]1CCCN(C(=O)c2cc3c4c(c2)nc(-c2cc5ccccc5n2CCO)n4CCO3)C1 [Example 22, (R)-(3-aminopiperidin-1-yl)(2-(1-(2-hydroxyethyl)-1H-indol-2-yl)-3,4-dihydro-5-oxa-1,2a-diazaacenaphthylen-7-yl)methanone]
≤ 1000 | N[C@@H]1CCCN(C(=O)c2cc3c4c(c2)nc(-c2cc5ccccc5n2Cc2ccncc2F)n4CCO3)C1 [Example 24, (R)-(3-aminopiperidin-1-yl)(2-(1-((3-fluoropyridin-4-yl)methyl)-1H-indol-2-yl)-3,4-dihydro-5-oxa-1,2a-diazaacenaphthylen-7-yl)methanone]
1000 to 10000 | N[C@@H]1CCCN(C(=O)c2cc3c4c(c2)nc(-c2cc5ccccc5n2CC2CC2)n4CCCO3)C1 [Example 6, (R)-(3-aminopiperidin-1-yl)(1-(1-(cyclopropylmethyl)-1H-indol-2-yl)-8,9-dihydro-7H-6-oxa-2,9a-diazabenzo[cd]azulen-4-yl)methanone]
